A short description of the data set: Compatibility study: rosiglitazone maleate mixed with excipients/metformin and water, formation of Compound 1. The data set is classed as physicochemical. The following applies: rosiglitazone maleate mixed with the named excipient in proportions of 500 mg/4 mg tablets, 0.5 ml water added, 65° C. for 4 days. The method, then: Rosiglitazone maleate was mixed with various excipients and with metformin in the same proportions as present in the 500 mg/4 mg (base strength) metformin/rosiglitazone maleate tablets. 0.5 ml of water was added to each mixture, and the samples were kept at 65° C. for 4 days. The amount of Compound 1 was determined in each of the samples using the method in Example 4. The peaks were measured and the area percent (area of Compound 1 peak/area of all rosiglitazone related peaks) of the Compound 1 peak is listed below.
Placebo mix A refers to a mixture of excipients as indicated in Example 5a, with the exception of rosiglitazone maleate.
Placebo mix B refers to a mixture of excipients as indicated in Example 5b, with the exception of rosiglitazone maleate.

Molecules are shown by their SMILES.

On to `CN(CCOc1ccc(CC2SC(=O)NC2=O)cc1)c1ccccn1.O=C(O)/C=C\C(=O)O` (racemic) [Rosiglitazone Maleate (alone), (±)-5-[[4-[2-(methyl-2-pyridinylamino)ethoxy]phenyl]methyl]-2,4-thiazolidinedione, (Z)-2-butenedioate (1:1)], for which the “Area Percent of Compound 1 peak (area of Compound 1 peak/area of all rosiglitazone related peaks)” value was 0.9 Area Percent.
